Test results from ChEMBL document CHEMBL1201862, “PubChem BioAssay data set” (2004).
Calls of active or inactive are those of the source.

Key:
[1] = target: Heat shock protein HSP 90-alpha (Homo sapiens, UniProt P07900); test: Luminescence-based dose response biochemical high throughput screening assay for inhibitors of the Heat Shock Protein 90 (HSP90). [Related pubchem assays: 1831 (Summary AID.), 1846 (Confirmation screen.), 1789 (Primary screen.)]
INS1 = test: beta cell apoptosis inhibitors, cytokine rescue, dose response, luminescence, retest (AID 449756); assay type: functional, cell-based; conditions: Rattus norvegicus;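 further: cell death triggered by IL-1 beta plus TNF-alpha plus IFN-gamma mixture; protective hits raise ATP signal compared with cytokine alone wells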
[2] = P. falciparum late gametocyte killing, dose response, luminescence (AID 1117278); assay type: functional, cell-based;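 further: gametocytes exposed to compound for 24 hours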
[3] = Jurkat T cell cytotoxicity, dose response, cytotoxicity control for P. falciparum gametocyte viability project, luminescence (AID 1117277); assay type: functional, cell-based;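 further: potency reflects loss of cellular ATP meaning fewer viable cells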
HeLa = test: HeLa cell cytotoxicity, dose response, cytotoxicity control for MITF activator project, CellTiter-Glo luminescence, cherry-pick samples (AID 540259); assay type: functional, cell-based; conditions: Homo sapiens
[4] = cytotoxicity in HEK-293T cells, dose response, cytotoxicity control for BCR NF-kB inhibitor project, luminescence, B-cell screen hits (AID 489021); assay type: functional, cell-based;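 further: HEK-293T cells carrying an NF-kB luciferase reporter; cells exposed to compound for about 14 hours before viability readout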
[5] = inhibitors of SNCA 5'UTR-driven reporter translation, confirmation, H4 neuroglioma cells, luminescence (AID 1988); assay type: functional, cell-based
[6] = inhibitors of firefly luciferase expression or activity, dose response, H4 neuroglioma cells, luminescence (AID 1990); assay type: functional, cell-based
[7] = Luminescence Cell-Based Dose Response HTS to Identify Inhibitors of 5'UTR Stem-Loop Driven Prion Protein mRNA Translation in H4 Neuroglioblastoma Cells. [Related pubchem assays: 1827 (Project Summary), 1813 (Primary HTS)]; assay type: functional
H9c2 = test: cells; assay type: functional, cell-based; conditions: Rattus norvegicus, H9c2, Myocardium;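 further: confirmatory concentration-response retest of ultra-high-throughput screening hits for modulation of myocardial damage; cell death induced by hydrogen peroxide oxidative stress; compound pretreatment for 60 min then peroxide exposure for 2 h; potency is for protecting the cells against peroxide damage rather than for killing them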
[8] = THP-1 cell cytotoxicity, dose response, cytotoxicity control for Vif-APOBEC3G degradation inhibitor project, THP-1 cells (AID 1117359); assay type: functional; conditions: Human immunodeficiency virus 1, THP-1
[9] = inhibitors of PGC1a acetylation in cells, dose response, cell-based, cherry-picked samples (AID 720514); assay type: functional;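 further: potency may reflect raised or lowered acetylation signal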
[10] = inhibitors of Vif binding to APOBEC3G peptide, primary screen, biochemical, TR-FRET, GST-Vif 1-94, biotin-A3G peptide, dose response retest (AID 1117319); assay type: functional;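 further: TR-FRET signal of purified GST-Vif binding a biotinylated A3G peptide; inhibitors lower the FRET signal by blocking Vif and A3G binding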
[11] = growth suppression of beta-catenin-knockout colon cells, dose response, cell-based, HCT116, human colon tumor (AID 1045); assay type: functional;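 further: HCT116 colon tumor cells with beta catenin knocked out; cells exposed to compound for 60 hours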
[12] = growth suppression of PTEN-null colon cells, dose response, cell-based, HCT116 PTEN knockout (AID 1047); assay type: functional;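 further: HCT116 colon tumor cells with PTEN knocked out; cells exposed to compound for 60 hours before readout; potency for loss of cell viability measured by luminescence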
BJ [13] = test: cells; assay type: functional, cell-based; conditions: Homo sapiens
BJ [14] = test: cytotoxicity toward BJ-TERT-LT-ST fibroblasts, dose response, cell-based, RAS-independent, luminescence (AID 1935); assay type: functional; conditions: Homo sapiens;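 further: BJ fibroblasts immortalized with TERT plus LT and ST oncogenes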
BJ [15] = test: cytotoxicity toward BJ-TERT fibroblasts, dose response, cell-based, RAS-independent, luminescence (AID 1933); assay type: functional; conditions: Homo sapiens
[16] = cytotoxicity toward DRD oncogenic fibroblasts, dose response, cell-based, non-viral oncogenic, luminescence (AID 1934); assay type: functional; conditions: Homo sapiens
[17] = inhibitors of intracellular T. cruzi replication, confirmation, NIH3T3 host cells, beta-gal luminescence (AID 2044); assay type: functional, cell-based;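 further: intracellular parasites grown in NIH/3T3 mouse fibroblasts as host cells; luminescent beta-galactosidase reporter signal from transgenic T. cruzi replicating inside host cells; inhibitors lower the luminescence signal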
[18] = NIH-3T3 fibroblast cytotoxicity, dose response, cytotoxicity control, cell-based, fluorescence, Alamar Blue, secondary assay (AID 2327); assay type: functional;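 further: NIH-3T3 mouse fibroblasts cultured with fluconazole at 8 µg/mL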
[19] = target: T1, Serine/threonine-protein phosphatase (Candida dubliniensis (strain CD36 / CBS 7987 / NCPF 3949 / NRRLY-17841) (Yeast), UniProt B9W6M3); test: calcineurin pathway inhibitors in yeast reporter, dose response, S. cerevisiae, CDRE-lacZ, luminescence, secondary (AID 2388); assay type: functional, cell-based;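 further: yeast reporter cells carrying a calcineurin-responsive lacZ construct stimulated with calcium chloride; luminescent beta-galactosidase reporter signal in whole cells rather than isolated phosphatase activity; potency for inhibition where a drop in reporter signal means calcineurin blockade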
T1 sequence (B9W6M3 whole entry): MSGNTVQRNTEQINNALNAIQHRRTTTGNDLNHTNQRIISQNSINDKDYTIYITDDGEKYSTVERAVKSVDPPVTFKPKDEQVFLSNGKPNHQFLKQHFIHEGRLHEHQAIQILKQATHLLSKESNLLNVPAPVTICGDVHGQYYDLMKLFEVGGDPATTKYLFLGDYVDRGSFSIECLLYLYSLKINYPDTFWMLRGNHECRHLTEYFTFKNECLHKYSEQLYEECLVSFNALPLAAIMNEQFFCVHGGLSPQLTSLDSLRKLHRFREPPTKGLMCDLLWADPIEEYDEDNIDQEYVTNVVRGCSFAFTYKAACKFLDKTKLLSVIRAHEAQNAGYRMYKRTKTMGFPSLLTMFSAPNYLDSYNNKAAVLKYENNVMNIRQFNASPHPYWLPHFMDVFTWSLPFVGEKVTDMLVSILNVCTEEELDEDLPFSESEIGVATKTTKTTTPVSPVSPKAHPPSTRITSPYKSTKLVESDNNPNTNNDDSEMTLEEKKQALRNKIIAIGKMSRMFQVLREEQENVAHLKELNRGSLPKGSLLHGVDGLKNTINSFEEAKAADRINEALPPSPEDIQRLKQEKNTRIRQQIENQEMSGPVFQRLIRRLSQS

cells [20] = assay type: functional, cell-based
[21] = target: ATP-dependent molecular chaperone HSP82 (Candida albicans (strain WO-1) (Yeast), UniProt C4YTQ8); test: loss of DOC-induced GRE-beta-galactosidase reporter signal, dose response, Hsp90 inhibitor project, S. cerevisiae, luminescence (AID 2400); assay type: functional, cell-based;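 further: beta-galactosidase luminescence from glucocorticoid response element reporter as proxy for Hsp90 function; inhibitor potency where signal loss means Hsp90 inhibition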
Chain of ATP-dependent molecular chaperone HSP82 (C4YTQ8 whole entry): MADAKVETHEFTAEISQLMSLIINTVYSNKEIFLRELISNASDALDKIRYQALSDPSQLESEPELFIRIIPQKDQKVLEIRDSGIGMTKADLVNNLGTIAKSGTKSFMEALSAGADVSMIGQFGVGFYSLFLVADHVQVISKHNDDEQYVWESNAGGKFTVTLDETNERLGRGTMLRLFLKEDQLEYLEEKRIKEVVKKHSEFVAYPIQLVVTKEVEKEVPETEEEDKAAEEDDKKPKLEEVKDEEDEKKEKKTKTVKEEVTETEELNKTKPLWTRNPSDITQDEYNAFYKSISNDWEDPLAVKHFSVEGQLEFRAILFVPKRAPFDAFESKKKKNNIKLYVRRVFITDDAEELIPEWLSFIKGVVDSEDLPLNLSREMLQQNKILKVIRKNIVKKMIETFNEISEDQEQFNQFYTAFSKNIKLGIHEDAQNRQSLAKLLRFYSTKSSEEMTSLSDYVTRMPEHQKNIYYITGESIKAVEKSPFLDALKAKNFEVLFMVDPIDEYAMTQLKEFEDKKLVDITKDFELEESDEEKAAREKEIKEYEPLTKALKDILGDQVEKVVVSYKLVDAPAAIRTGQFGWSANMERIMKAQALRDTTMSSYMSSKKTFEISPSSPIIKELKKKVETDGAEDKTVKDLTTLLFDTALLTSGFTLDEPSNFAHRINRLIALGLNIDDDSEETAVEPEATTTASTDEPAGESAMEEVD

[22] = C. albicans growth with fluconazole, confirmation, fluorescence, retest (AID 2467); assay type: functional, cell-based
cells [23] = assay type: functional, cell-based; remark: listed apart in the source
[24] = cytotoxicity toward NIH3T3 fibroblasts, dose response, counter-screen, cell-based, ATP luminescence, mouse fibroblasts (AID 2010); assay type: functional;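 further: cells exposed to compound for about 90 hours before reading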

Compound: CC(=O)CSc1ccc(-c2nc3ccccc3[nH]2)cn1
- IC50 [1]: 8.09 µM (active)
- AC50 (INS1): 5.24 µM (active)

Compound: O=S(=O)(Nc1ccncc1)c1ccccc1
- IC50 [2]: > 109 µM (inactive)
- IC50 [3]: > 83.3 µM (inactive)

Compound: Cc1cccc2c1-c1sc(C(=O)N3CCCCC3)cc1CO2
- AC50 (HeLa): > 350 µM (inactive)

Compound: Cc1c(CCC(=O)NCCCn2ccnc2)c(=O)oc2c(C)c3oc4c(c3cc12)CCCC4
- IC50 [4]: 63.6 µM (inactive)
- EC50 [5]: 14.6 µM (active)
- EC50 [6]: 13.7 µM (active)
- EC50 [7]: 17.8 µM (active)

Compound: Brc1ccc2nc(N3CCN(c4ccccc4)CC3)sc2c1
- IC50 [2]: > 109 µM (inactive)
- IC50 [3]: > 83.2 µM (inactive)

Compound: CC(=O)Nc1ccc(Nc2nc(-c3sc(NC(C)=O)nc3C)cs2)cc1
- IC50 [4]: 20.6 µM (inactive)
- IC50 (H9c2): > 79 µM (inactive)

Compound: Cc1nc(Nc2ccc(S(N)(=O)=O)cc2)sc1C(=O)Nc1ccccc1
- CC50 [8]: > 40 µM (active)
- AC50 [9]: 3.05 µM (active)

Compound: O=C(O)c1ccc(COc2c(F)c(F)c(F)c(F)c2F)o1
- IC50 [10]: > 100 µM (active)

Compound: Clc1cccc(-c2cc3nc4c(c(N5CCNCC5)n3n2)CCCC4)c1
- EC50 [11]: 7.97 µM (active)
- EC50 [12]: 8.22 µM (active)

Compound: COc1ccc(/C=C/c2noc(-c3ccccc3OC(C)=O)n2)cc1
- IC50 [1]: 3.29 µM (active)

Compound: Cc1cc2c(C)cc(O)nc2cc1NC(=O)CCl
- EC50 (BJ [13]): > 150 µM (not active)
- EC50 (BJ [14]): > 150 µM (not active)
- EC50 (BJ [15]): 17.7 µM (active)
- EC50 [16]: 42.2 µM (active)

Compound: COc1ccc(CC(=O)OCC(=O)NCc2ccco2)cc1OC
- CC50 [8]: > 40 µM (active)
- IC50 [10]: > 100 µM (active)

Compound: O=C(CCN1CCOCC1)NCC(=O)Nc1ccc(Br)cc1C(=O)c1ccccc1
- IC50 [10]: > 100 µM (active)

Compound: Cc1ccc(S(=O)(=O)N(CC(=O)N/N=C/c2cccc3c2OCCO3)c2ccccc2F)cc1
- IC50 [10]: > 100 µM (active)

Compound: COc1cccc(/C=N/NC(=O)c2c(C)nc3ccc(Br)cn23)c1O
- EC50 [17]: 3.06 µM (active)
- EC50 [18]: > 160 µM (inactive)
- EC50 [19]: > 180 µM (inactive)
- EC50 (cells [20]): 126 µM (active)
- EC50 [21]: 23.8 µM (active)
- AC50 (INS1): 0.842 µM (active)
- EC50 [22]: 0.483 µM (active)
- EC50 (cells [23]): 7.35 µM (active)
- EC50 [24]: > 60 µM (inconclusive)
